Data from patent publication US9725449B2, “Tricyclic compounds as anticancer agents” (BRISTOL-MYERS SQUIBB COMPANY, priority 2015, dated 2017).

Target: BRD4 (Homo sapiens, UniProt O60885)
Test: Time resolved fluorescence resonance energy transfer (TR-FRET) binding assay, bromodomain BRD4
Conditions: one of the FRET assays described; read-out: FRET BRD4 IC50

SMILES	IC50 [nM]
COc1ncc(C(C)(C)O)c2c1c1ncc(-c3c(C)noc3C)cc1n2[C@H](c1ccccc1)C1CCOCC1 [Example 141, 2-[5-(Dimethyl-1,2-oxazol-4-yl)-13-methoxy-8-[(S)-oxan-4-yl(phenyl)methyl]-3,8,12-triazatricyclo[7.4.0.0^2,^7]trideca-1(9),2,4,6,10,12-hexaen-10-yl]propan-2-ol]	< 10
Cc1nnn(C)c1-c1cnc2c3ccc(N4CCN(C5CCN(C)CC5)CC4)nc3n([C@H](c3ccccc3F)C3CCOCC3)c2c1 [Example 270, 5-(Dimethyl-1H-1,2,3-triazol-5-yl)-8-[(S)-(2-fluorophenyl)(oxan-4-yl)methyl]-11-[4-(1-methylpiperidin-4-yl)piperazin-1-yl]-3,8,10-triazatricyclo[7.4.0.0^2,^7]trideca-1(13),2(7),3,5,9,11-hexaene]	< 1
COc1nc(Cl)cc2c1c1ncc(-c3c(C)nnn3C)cc1n2C(c1ncccc1O)C1CCOCC1 (stereo not drawn) [Example 306, 2-({11-Chloro-13-methoxy-5-[4-(^2H3)methyl-1-methyl-1H-1,2,3-triazol-5-yl]-3,8,12-triazatricyclo[7.4.0.0^2,^7]trideca-1(9),2(7),3,5,10,12-hexaen-8-yl}(oxan-4-yl)methyl)pyridin-3-ol]	< 10
COc1ncc(C(C)(C)O)c2c1c1ncc(-c3c(C)nnn3C)cc1n2[C@H](c1ccccc1)C1CCOCC1 [Example 142, 2-[5-(Dimethyl-1H-1,2,3-triazol-5-yl)-13-methoxy-8-[(S)-oxan-4-yl(phenyl)methyl]-3,8,12-triazatricyclo[7.4.0.0^2,^7]trideca-1(9),2,4,6,10,12-hexaen-10-yl]propan-2-ol]	< 10
[2H]C([2H])([2H])c1nnn(C)c1-c1cnc2c3ccc(C4=CCSCC4)nc3n([C@H](c3ccccc3)C3CCOCC3)c2c1 [Example 203, 11-(3,6-Dihydro-2H-thiopyran-4-yl)-5-[4-(^2H3)methyl-1-methyl-1H-1,2,3-triazol-5-yl]-8-[(S)-oxan-4-yl(phenyl)methyl]-3,8,10-triazatricyclo[7.4.0.0^2,^7]trideca-1(9),2(7),3,5,10,12-hexaene]	< 10
Cc1nnn(C)c1-c1cnc2c3cc(Cl)ncc3n([C@H](c3ccccc3F)C3CCOCC3)c2c1 [Example 4, 12-Chloro-5-(dimethyl-1H-1,2,3-triazol-5-yl)-8-[(S)-(2-fluorophenyl)(oxan-4-yl)methyl]-3,8,11-triazatricyclo[7.4.0.0^2,^7]trideca-1(13),2(7),3,5,9,11-hexaene]	< 10
[2H]C([2H])([2H])c1nnn(C)c1-c1cnc2c3ccc(NCCS(C)(=O)=O)nc3n([C@H](c3ccccc3)C3CCOCC3)c2c1 [Example 189, N-(2-Methanesulfonylethyl)-5-[4-(^2H3)methyl-1-methyl-1H-1,2,3-triazol-5-yl]-8-[(S)-oxan-4-yl(phenyl)methyl]-3,8,10-triazatricyclo[7.4.0.0^2,^7]trideca-1(9),2(7),3,5,10,12-hexaen-11-amine]	< 1
Cc1nnn(C)c1-c1cnc2c3ccc(NC(=O)OC(C)C)nc3n([C@H](c3ccccc3)C3CCOCC3)c2c1 [Example 206, Propan-2-yl N-[5-(dimethyl-1H-1,2,3-triazol-5-yl)-8-[(S)-oxan-4-yl(phenyl)methyl]-3,8,10-triazatricyclo[7.4.0.0^2,^7]trideca-1(9),2(7),3,5,10,12-hexaen-11-yl]carbamate]	< 10
Cc1nnn(C)c1-c1ccc2c3ncc(C(C)(C)O)cc3n([C@H](c3ccccc3)C3CCOCC3)c2n1 [Example 380]	< 10
Cc1nnn(C)c1-c1cnc2c3ccc(N4CCS(=O)(=O)C(C)C4)nc3n([C@H](c3ccccc3)C3CCOCC3)c2c1 (stereo partly drawn) [Example 213, 4-[5-(Dimethyl-1H-1,2,3-triazol-5-yl)-8-[(S)-oxan-4-yl(phenyl)methyl]-3,8,10-triazatricyclo[7.4.0.0^2,^7]trideca-1(9),2(7),3,5,10,12-hexaen-11-yl]-2-methyl-1λ^6,4-thiomorpholine-1,1-dione]	< 1
Cc1nnn(C)c1-c1cnc2c3cnc(Cl)cc3n([C@H](c3ccc(F)cc3)C3CCOCC3)c2c1 [Example 322]	< 10
[2H]C([2H])([2H])c1onc(C)c1-c1cnc2c3c(OC)ncc(S(C)(=O)=O)c3n([C@H](c3ccccc3)C3CCOCC3)c2c1 [Example 60, 10-Methanesulfonyl-13-methoxy-5-[5-(^2H3)methyl-3-methyl-1,2-oxazol-4-yl]-8-[(S)-oxan-4-yl(phenyl)methyl]-3,8,12-triazatricyclo[7.4.0.0^2,^7]trideca-1(13),2(7),3,5,9,11-hexaene]	< 1
[2H]C([2H])([2H])c1nnn(C)c1-c1cnc2c3cnc(C(C)(C)O)c(F)c3n([C@H](c3ccccc3)C3CCOCC3)c2c1 [Example 278, 2-{10-Fluoro-5-[4-(^2H3)methyl-1-methyl-1H-1,2,3-triazol-5-yl]-8-[(S)-oxan-4-yl(phenyl)methyl]-3,8,12-triazatricyclo[7.4.0.0^2,^7]trideca-1(13),2(7),3,5,9,11-hexaen-11-yl}propan-2-ol]	< 1
COc1ncc(CO)c2c1c1ncc(-c3c(C)nnn3C)cc1n2[C@H](c1ccccc1)C1CCOCC1 [Example 136, [5-(Dimethyl-1H-1,2,3-triazol-5-yl)-13-methoxy-8-[(S)-oxan-4-yl(phenyl)methyl]-3,8,12-triazatricyclo[7.4.0.0^2,^7]trideca-1(9),2,4,6,10,12-hexaen-10-yl]methanol]	< 10
CNS(=O)(=O)c1ccc2c3ncc(-c4c(C)nnn4C)cc3n([C@H](c3ccccc3)C3CCOCC3)c2n1 [Example 199, 5-(Dimethyl-1H-1,2,3-triazol-5-yl)-N-methyl-8-[(S)-oxan-4-yl(phenyl)methyl]-3,8,10-triazatricyclo[7.4.0.0^2,^7]trideca-1(9),2(7),3,5,10,12-hexaene-11-sulfonamide]	< 10
[2H]C([2H])([2H])c1nnn(C)c1-c1cnc2c3c(OCC)ncc(S(C)(=O)=O)c3n([C@H](c3ccc(F)cc3)C3CCOCC3)c2c1 [Example 77, 13-Ethoxy-8-[(S)-(4-fluorophenyl)(oxan-4-yl)methyl]-10-methanesulfonyl-5-[4-(^2H3)methyl-1-methyl-1H-1,2,3-triazol-5-yl]-3,8,12-triazatricyclo[7.4.0.0^2,^7]trideca-1(13),2(7),3,5,9,11-hexaene]	< 1
[2H]C([2H])([2H])c1nnn(C)c1-c1cnc2c3c(OC)ncc(S(C)(=O)=O)c3n(C(c3ncccc3F)C3CCC(F)(F)CC3)c2c1 (stereo not drawn) [Example 73, 8-[(4,4-Difluorocyclohexyl)(3-fluoropyridin-2-yl)methyl]-10-methanesulfonyl-13-methoxy-5-[4-(^2H3)methyl-1-methyl-1H-1,2,3-triazol-5-yl]-3,8,12-triazatricyclo[7.4.0.0^2,^7]trideca-1(13),2(7),3,5,9,11-hexaene]	< 1500
CNCCN(C)c1ccc2c3ncc(-c4c(OC)nnn4C)cc3n([C@H](c3ccccc3F)C3CCOCC3)c2n1 [Example 255, 8-[(S)-(2-Fluorophenyl)(oxan-4-yl)methyl]-5-(4-methoxy-1-methyl-1H-1,2,3-triazol-5-yl)-N-methyl-N-[2-(methylamino)ethyl]-3,8,10-triazatricyclo[7.4.0.0^2,^7]trideca-1(13),2(7),3,5,9,11-hexaen-11-amine]	< 10
